Measurements from patent publication US11414404B2, “Compounds for the treatment of BRAF-associated diseases and disorders” (Array BioPharma Inc., priority 2019, dated 2022).
pIC50: −log10 of the molar value. Like-named read-outs stand apart in the source and are kept apart here.

Key:
[1] = biological target: full-length FLAG-tagged B-Raf(V600E) (Homo sapiens (Human), UniProt P15056, V600E); assay: BRAF V600E enzyme assay (TR-FRET competitive displacement of fluorescent tracer); type: binding; conditions: averaged IC50; 60 min at ambient temperature; 11-point dosing, top dose 10 μM
full-length FLAG-tagged B-Raf(V600E), sequence (P15056 whole entry V600E): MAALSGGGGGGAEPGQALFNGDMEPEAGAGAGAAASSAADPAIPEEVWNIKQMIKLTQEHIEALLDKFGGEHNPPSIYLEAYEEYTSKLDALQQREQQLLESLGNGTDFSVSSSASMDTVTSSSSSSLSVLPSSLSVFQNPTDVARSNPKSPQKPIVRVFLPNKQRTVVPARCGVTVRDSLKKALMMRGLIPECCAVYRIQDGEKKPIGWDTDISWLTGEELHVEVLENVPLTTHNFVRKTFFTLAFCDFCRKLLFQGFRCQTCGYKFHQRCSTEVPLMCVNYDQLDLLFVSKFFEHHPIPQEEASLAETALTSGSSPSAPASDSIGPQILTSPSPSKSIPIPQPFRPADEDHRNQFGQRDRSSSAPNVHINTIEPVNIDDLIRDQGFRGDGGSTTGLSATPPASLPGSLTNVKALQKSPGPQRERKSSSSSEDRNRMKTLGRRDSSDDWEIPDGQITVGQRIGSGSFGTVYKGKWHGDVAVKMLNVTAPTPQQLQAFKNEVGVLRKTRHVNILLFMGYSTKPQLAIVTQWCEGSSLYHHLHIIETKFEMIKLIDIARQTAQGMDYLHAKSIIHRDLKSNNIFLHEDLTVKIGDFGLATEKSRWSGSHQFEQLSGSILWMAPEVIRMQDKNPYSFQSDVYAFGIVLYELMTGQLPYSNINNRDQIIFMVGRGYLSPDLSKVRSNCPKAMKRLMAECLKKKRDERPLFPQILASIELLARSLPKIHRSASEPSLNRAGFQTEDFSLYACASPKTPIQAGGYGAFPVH
Text: (§1) A competitive displacement assay was configured for B-Raf that monitors the amount of a fluorescently-tagged “tracer” bound to B-Raf via TR-FRET from an anti-tag Eu-labeled antibody also bound to B-Raf.
(§2) [formula] • where: • Xmax Average Uninhibited Controls • Xmin Average Background
(§3) A 4-parameter logistic model was the fit to the POC data for each compound.

BCRP [2] = biological target: T1, BCRP (Homo sapiens (Human), UniProt Q9UNQ0); assay: BCRP MDCKII permeability assay: efflux ratio; conditions: BCRP transfected MDCKII cells; Papp(B−A)/Papp(A−B); test article 1 μM; 2 hours
T1 sequence (Q9UNQ0 whole entry, species assumed): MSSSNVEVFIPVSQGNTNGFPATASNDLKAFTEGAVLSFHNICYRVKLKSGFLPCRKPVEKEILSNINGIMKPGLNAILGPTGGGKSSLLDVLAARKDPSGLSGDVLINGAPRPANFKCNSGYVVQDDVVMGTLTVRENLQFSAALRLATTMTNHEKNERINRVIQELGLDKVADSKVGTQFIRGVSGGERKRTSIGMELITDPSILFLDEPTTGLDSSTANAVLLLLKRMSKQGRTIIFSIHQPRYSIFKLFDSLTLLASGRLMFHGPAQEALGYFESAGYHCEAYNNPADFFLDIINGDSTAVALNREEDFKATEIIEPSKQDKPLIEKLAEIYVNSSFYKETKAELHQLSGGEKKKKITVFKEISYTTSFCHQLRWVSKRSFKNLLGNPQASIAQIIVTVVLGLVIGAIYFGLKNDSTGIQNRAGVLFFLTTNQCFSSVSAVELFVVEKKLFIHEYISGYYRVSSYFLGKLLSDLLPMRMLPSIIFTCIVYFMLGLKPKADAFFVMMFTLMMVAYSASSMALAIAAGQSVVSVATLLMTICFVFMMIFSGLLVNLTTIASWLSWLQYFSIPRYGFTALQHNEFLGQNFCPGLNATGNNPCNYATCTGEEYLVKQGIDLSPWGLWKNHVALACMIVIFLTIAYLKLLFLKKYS

P-gp (MDR1) [3] = biological target: T2, P-gp (MDR1) (Homo sapiens (Human), UniProt P08183); assay: MDR1 LLC-PK1 permeability assay: efflux ratio; conditions: MDR1 transfected LLC-PK1 cells; Papp(B−A)/Papp(A−B); test article 1 μM; 2 hours
T2 sequence (P08183 whole entry, species assumed): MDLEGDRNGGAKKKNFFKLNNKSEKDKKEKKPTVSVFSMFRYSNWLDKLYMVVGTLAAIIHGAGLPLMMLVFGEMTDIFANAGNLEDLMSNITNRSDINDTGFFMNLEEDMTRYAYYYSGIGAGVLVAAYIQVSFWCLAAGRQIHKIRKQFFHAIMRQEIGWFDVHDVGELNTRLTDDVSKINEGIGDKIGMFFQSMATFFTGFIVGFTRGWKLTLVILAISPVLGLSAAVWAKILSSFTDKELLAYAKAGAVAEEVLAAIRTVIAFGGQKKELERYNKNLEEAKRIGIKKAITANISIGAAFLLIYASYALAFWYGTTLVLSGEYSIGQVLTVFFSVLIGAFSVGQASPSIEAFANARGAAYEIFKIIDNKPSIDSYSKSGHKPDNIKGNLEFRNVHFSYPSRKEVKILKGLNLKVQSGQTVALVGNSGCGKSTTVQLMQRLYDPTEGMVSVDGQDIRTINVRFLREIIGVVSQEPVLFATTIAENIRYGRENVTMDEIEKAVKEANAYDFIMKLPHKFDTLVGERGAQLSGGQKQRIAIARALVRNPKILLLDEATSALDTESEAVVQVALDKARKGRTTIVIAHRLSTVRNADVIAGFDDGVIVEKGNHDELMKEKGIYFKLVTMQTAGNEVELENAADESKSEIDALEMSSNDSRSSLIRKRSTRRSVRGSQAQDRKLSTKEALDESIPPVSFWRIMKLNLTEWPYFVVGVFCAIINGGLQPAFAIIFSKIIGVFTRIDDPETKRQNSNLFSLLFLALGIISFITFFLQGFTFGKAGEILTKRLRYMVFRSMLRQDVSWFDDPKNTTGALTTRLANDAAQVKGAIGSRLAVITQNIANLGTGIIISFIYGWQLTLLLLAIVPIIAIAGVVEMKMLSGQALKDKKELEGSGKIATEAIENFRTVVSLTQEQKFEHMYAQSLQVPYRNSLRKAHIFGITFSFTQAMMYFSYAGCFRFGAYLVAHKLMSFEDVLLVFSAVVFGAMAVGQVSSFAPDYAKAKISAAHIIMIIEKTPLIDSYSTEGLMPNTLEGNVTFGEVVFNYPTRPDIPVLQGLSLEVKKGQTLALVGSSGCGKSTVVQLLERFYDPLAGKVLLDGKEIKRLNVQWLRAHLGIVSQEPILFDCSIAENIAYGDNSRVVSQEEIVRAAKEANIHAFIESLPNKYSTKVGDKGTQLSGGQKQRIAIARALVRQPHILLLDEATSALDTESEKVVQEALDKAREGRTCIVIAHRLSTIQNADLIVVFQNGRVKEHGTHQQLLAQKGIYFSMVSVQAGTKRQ

[4] = system: LLC-PK1 or MDCKII cell monolayer; assay: MDR1 LLC-PK1 and BCRP MDCKII permeability assay: permeability coefficient (Papp); conditions: permeability coefficient Papp; test article 1 μM; 2 hours, 37° C.
Procedure: (§4) Both LLC-PK1 and MDR1 transfected LLC-PK1 cells were cultured and plated according to manufacturer's recommendations with the exception that the passage media contained only 2% fetal bovine serum to extend passage time out to seven days.
(§5) BCRP transfected MDCKII cells were cultured and plated according to manufacturer's recommendations. Assay conditions included with and without the BCRP-specific inhibitor, K0143, at a concentration of 0.3 μM to ascertain the contribution of BCRP to the efflux value of the test compound.
(§6) Both positive and negative controls were used to assess functionality of P-gp or BCRP efflux in the assays. […] Final organic concentration in the assay was 1%. All dosing solutions contained 10 μM lucifer yellow to monitor LLC-PK1 or MDCKII cell monolayer integrity.
(§7) For the apical to basolateral determination (A to B), 75 μL of the test article in transport buffer were added to the apical side of the individual transwells and 250 μL of basolateral media, without compound or lucifer yellow, were added to each well. For the basolateral to apical determination (B to A), 250 μL of test article in transport buffer were added to each well and 75 μL transport buffer, without compound or lucifer yellow, were added to each transwell. All tests were performed in triplicate, and each compound was tested for both apical to basolateral and basolateral to apical transport. The plates were incubated for 2 hours on a Lab-Line Instruments Titer Orbital Shaker (VWR, West Chester, Pa.) at 50 rpm and 37° C. with 5% CO2. All culture plates were removed from the incubator and 50 μL of media were removed from the apical and basolateral portion of each well and added to 150 μL of 1 μM labetalol in 2:1 acetonitrile (acetonitrile): H2O, v/v.
(§8) These values were accepted when found to be below 2% for apical to basolateral and 5% basolateral to apical flux across the MDR1-transfected LLC-PK1 or BCRP-transfected MDCKII cell monolayers. The plates were sealed and the contents of each well analyzed by LC-MS/MS. The compound concentrations were determined from the ratio of the peak areas of the compound to the internal standard (labetalol) in comparison to the dosing solution.
(§9) The LC-MS/MS system was comprised of an HTS-PAL autosampler (Leap Technologies, Carrboro, N.C.), an HP1200 HPLC (Agilent, Palo Alto, Calif.), and a MDS Sciex 4000 Q Trap system (Applied Biosystems, Foster City, Calif.). […] The total run time, including re-equilibration, for a single injection was 1.2 minutes. Mass spectrometric detection of the analytes was accomplished using the ion spray positive mode.
(§10) where Cd, V, t and C0 are the detected concentration (μM), the volume on the dosing side (mL); the incubation time (s) and the initial dosing concentration (μM), respectively. The calculations for Papp were made for each replicate and then averaged.

[5] = system: LLC-PK1 or MDCKII cell monolayer
Procedure: as §4, §5, §6, §7, §8, §9, §10

[6] = system: A375-luciferase intracranial tumor xenografts; assay: Intracranial A375-luciferase efficacy and survival mouse tumor model; type: in vivo, female nu/nu NCr mice; conditions: for Survival (# Animals on day 90): n=10
Procedure: Female nu/nu NCr mice from Envigo (Indianapolis, Ind.) were obtained at 5-6 weeks of age and housed in groups of 5. Following a one week minimum acclimation period, mice received orthotopic (i.c.) intracranial injections of 3.0×10^3 A375-luciferase tumor cells suspended in a volume of 10 μL 0.9% sterile Dulbecco's phosphate buffered saline (DPBS) using the top-down approach (Laursen and Belknap, 1986). Seven days post cell implant (Day 1), animals were randomized and sorted into five groups (n=10/group).
Test compounds were given at a dose volume of 10 mL/kg, and vehicles were matched for each group to control for dosing stress, i.e. all groups received twice daily (BID) dose administration by oral gavage (PO) at the relevant dose volumes and schedule shown in Table 9. Tumor growth was monitored by measuring luciferase activity twice per week. Total flux/mouse can vary by an order of magnitude on day 1 of study start (start of dosing). The total flux was normalized per mouse by assigning the first measurement of flux on […] as 100%. Body weight loss as an indicator of tumor progression was determined daily during the dosing interval and then as needed (at least once weekly). Survival was evaluated through day 90 (30 days post-dosing cessation).

BCRP [7] = conditions: reported in the literature; cited from earlier work
P-gp (MDR1) [8] = biological target: T2, P-gp (MDR1); conditions: pig, LLC-PK1, 2 h, 1 µM
BCRP [9] = biological target: T1, BCRP; conditions: dog, 2 h, 1 µM
[10] = biological target: N-terminally GST-tagged B-Raf(V600K) (Homo sapiens, UniProt P15056, V600K); assay: BRAF V600K enzyme assay (TR-FRET competitive displacement of fluorescent tracer); type: binding; conditions: averaged IC50; 60 min at ambient temperature; 11-point dosing, top dose 10 μM
N-terminally GST-tagged B-Raf(V600K), sequence (P15056 2-766 V600K limits assumed): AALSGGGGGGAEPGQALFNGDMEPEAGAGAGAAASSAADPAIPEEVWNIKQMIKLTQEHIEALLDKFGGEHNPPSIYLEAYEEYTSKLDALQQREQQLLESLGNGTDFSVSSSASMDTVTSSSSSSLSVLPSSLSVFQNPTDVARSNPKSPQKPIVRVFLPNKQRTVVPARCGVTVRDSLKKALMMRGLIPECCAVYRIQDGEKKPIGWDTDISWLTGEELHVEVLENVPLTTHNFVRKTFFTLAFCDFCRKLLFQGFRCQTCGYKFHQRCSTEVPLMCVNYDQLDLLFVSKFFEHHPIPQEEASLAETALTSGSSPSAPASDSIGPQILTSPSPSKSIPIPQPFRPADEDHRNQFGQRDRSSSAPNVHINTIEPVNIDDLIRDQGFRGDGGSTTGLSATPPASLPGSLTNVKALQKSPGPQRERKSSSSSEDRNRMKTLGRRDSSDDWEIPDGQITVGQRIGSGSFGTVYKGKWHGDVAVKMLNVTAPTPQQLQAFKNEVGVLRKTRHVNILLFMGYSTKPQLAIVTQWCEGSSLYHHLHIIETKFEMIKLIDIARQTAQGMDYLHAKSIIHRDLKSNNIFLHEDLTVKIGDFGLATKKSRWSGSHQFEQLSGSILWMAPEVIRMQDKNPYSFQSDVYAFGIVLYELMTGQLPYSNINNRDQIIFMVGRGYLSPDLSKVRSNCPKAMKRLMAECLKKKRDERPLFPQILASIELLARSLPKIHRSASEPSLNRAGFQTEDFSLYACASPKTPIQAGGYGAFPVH
Text: as §1, §2, §3

[11] = PK (free brain-to-free plasma ratio) (mouse); type: in vivo; conditions: unbound brain-to-unbound plasma concentration ratio; male CD-1 mice; oral gavage 10 mg/kg; sampling 2-24 hours
Procedure: PK (Free Brain-to-Free Plasma Ratio) (Mouse)
The ability of representative compounds to penetrate the BBB in mice was determined by evaluating the unbound brain-to-unbound plasma (also referred to as free brain-to-free plasma) concentration ratio in male CD-1 mice.
Brain samples were stored at −20±5° C. prior to analysis. Concentrations of test compound in mouse brain homogenate were determined by liquid chromatography tandem mass spectrometry (LC-MS/MS) following protein precipitation with acetonitrile. A 12-point calibration curve, ranging from 0.5 to 10,000 ng/mL, was prepared in duplicate. A solution of 400 μg/mL of test compound in dimethyl sulfoxide (DMSO) was serially diluted (3-fold) in 100% DMSO, and then 2.5 μL of each standard solution was added to 100 μL of naïve male CD-1 mice brain homogenate. To mimic the extraction in the standard curve, 2.5 μL of DMSO was added to all test samples. Both calibration and test brain homogenate samples were spiked with 10 μL of an IS (1 μg/mL of a structural analog). Brain homogenate was generated by adding 0.75 mL of 4:1 water:MeOH to each brain sample followed by homogenization for 1 minute with bead beater tubes a 6 m/s using an MP Fast Prep-24®. Proteins were precipitated from 100 μL of brain homogenate sample by the addition of 300 μL of acetonitrile. […] A 100 μL aliquot of each supernatant was transferred via a 550 μL Personal Pipettor (Apricot Designs, Monrovia, Calif.) to 96-well plates and diluted 1:1 with HPLC grade water. The resulting plates were sealed with aluminum for LC-MS/MS analysis.
Brain-to-plasma ratios were calculated using the concentration of compound measured in the brain divided by the concentration of compound measured in the plasma. Brain-to-plasma ratios were always generated from a single animal and time point. Free brain-to-free plasma ratios were calculated by multiplying the brain-to-plasma ratio by the in vitro brain homogenate free fraction divided by the in vitro plasma free fraction using the following equation: (B/P)*(Bfu/Pfu).

Row | Compound | pIC50 [1] | BCRP efflux ratio (BCRP [2]) | MDR1 efflux ratio (P-gp (MDR1) [3]) | Permeability [4] | other results
1 | 1-cyclopropyl-N-(4-((3,5-dimethyl-4-oxo-3,4-dihydroquinazolin-6-yl)amino)-3,5-difluoropyridin-2-yl)methanesulfonamide [Example 42] | 7.22 | 23.73 | 5.26 | 18.35 *10^−6 cm/s | –
2 | CCCS(=O)(=O)Nc1cc(Cl)cc(Nc2ccc3ncn(C)c(=O)c3c2C)c1Cl [Example 48, N-(2,5-dichloro-3-((3,5-dimethyl-4-oxo-3,4-dihydroquinazoli-6-yl)amino)phenyl)propane-1-sulfonamide] | 8.52 | – | – | – | Permeability [5]: 25.83 *10^−6 cm/s
3 | CCCS(=O)(=O)Nc1cccc(Nc2ccc3ncn(C)c(=O)c3c2C)c1C#N [Example 53, N-(2-cyano-3-((3,5-dimethyl-4-oxo-3,4-dihdyroquinazolin-6-yl)amino)phenyl)propane-1-sulfonamide] | 8.03 | – | – | – | Permeability [5]: 27.13 *10^−6 cm/s
4 | CCN(C)S(=O)(=O)Nc1ccc(F)c(Nc2ccc3ncn(C)c(=O)c3c2C)c1Cl [Example 54, N-(2-chloro-3-((3,5-dimethyl-4-oxo-3,4-dihydroquinazolin-6-yl)amino)-4-fluorophenyl)-N-ethyl-N-methylamino-1-sulfonamide] | 6.73 | – | – | – | Permeability [5]: 35.81 *10^−6 cm/s
5 | Cc1c(Nc2c(F)ccc(NS(=O)(=O)CCCF)c2Cl)ccc2ncn(C)c(=O)c12 [Example 82, N-(2-chloro-3-((3,5-dimethyl-4-oxo-3,4-dihydroquinazolin-6-yl)amino)-4-fluorophenyl)-3-fluoropropane-1-sulfonamide] | – | – | – | – | Survival (# Animals on day 90) ([6]; Example 82 10 mg/kg BID PO 60 days): 6/10; Survival (# Animals on day 90) ([6]; Example 82 30 mg/kg BID PO 60 days): 6/10; efficacy as a single agent in the model ([6]; both doses employed (10 and 30 mg/kg BID PO)): highly effective; effect on tumor growth (total bioluminescence, FIG. 15) ([6]; single agent, BID for 60 consecutive days PO): significant effect
6 | CC(C)(C)c1nc(-c2cccc(NS(=O)(=O)c3c(F)cccc3F)c2F)c(-c2ccnc(N)n2)s1 [dabrafenib] | – | – | – | – | BCRP efflux ratio (BCRP [7]): 21.0
7 | CCCS(=O)(=O)Nc1ccc(F)c(C(=O)c2c[nH]c3ncc(-c4ccc(Cl)cc4)cc23)c1F [vemurafenib] | – | – | – | – | BCRP efflux ratio (BCRP [7]): 495
8 | N-(2-chloro-3-((3,5-dimethyl-4-oxo-3,4-dihydroquinazolin-6-yl)amino)-4-fluorophenyl)-1-cyclopropylmethanesulfonamide [Example 50] | 7.18 | 1.13 | 1.54 | 21.88 *10^−6 cm/s | –
9 | N-(2-chloro-3-((3,5-dimethyl-4-oxo-3,4-dihydroquinazolin-6-yl)amino)-4-fluorophenyl)-2-methylpropane-1-sulfonamide [Example 51] | 7.20 | 1.28 | 1.64 | 27.16 *10^−6 cm/s | –
10 | N-(2-chloro-3-((3,5-dimethyl-4-oxo-3,4-dihydroquinazolin-6-yl)amino)-4-fluorophenyl)ethanesulfonamide [Example 52] | 6.65 | 1.28 | 1.76 | 28.91 *10^−6 cm/s | –
11 | N-(3-((3,5-dimethyl-4-oxo-3,4-dihydroquinazolin-6-yl)amino)-2-fluoro-5-methylphenyl)propane-1-sulfonamide [Example 46] | 6.83 | – | – | – | Permeability ([5]; 2 h, 1 µM): 30.74 *10^−6 cm/s; MDR1 efflux ratio (P-gp (MDR1) [8]): 1.43; BCRP efflux ratio (BCRP [9]): 1.48
12 | N-(3-chloro-4-((3,5-dimethyl-4-oxo-3,4-dihydroquinazolin-6-yl)amino)-5-fluoropyridin-2-yl)-1-cyclopropylmethanesulfonamide [Example 47] | 7.38 | 7.93 | 1.84 | 25.7 *10^−6 cm/s | –
13 | N-(3-chloro-4-((3,5-dimethyl-4-oxo-3,4-dihydroquinazolin-6-yl)amino)-5-fluoropyridin-2-yl)ethanesulfonamide [Example 45] | 6.86 | 11.29 | 2.47 | 16.56 *10^−6 cm/s | –
14 | N-(3-chloro-4-((3,5-dimethyl-4-oxo-3,4-dihydroquinazolin-6-yl)oxy)-5-fluoropyridin-2-yl)propane-1-sulfonamide [Example 63] | 8.55 | – | – | – | pIC50 [10]: 8.62; B/P ratio (free) [11]: 0.34-0.4; Permeability ([5]; 2 h, 1 µM): 26.09 *10^−6 cm/s; MDR1 efflux ratio (P-gp (MDR1) [8]): 1.3; BCRP efflux ratio (BCRP [9]): 7.7
15 | N-(4-((3,5-dimethyl-4-oxo-3,4-dihydroquinazolin-6-yl)amino)-3,5-difluoropyridin-2-yl)ethanesulfonamide [Example 43] | 6.59 | 26.02 | 5.24 | 8.75 *10^−6 cm/s | –
16 | N-{2-chloro-3-[(3,5-dimethyl-4-oxo-3,4-dihydroquinazolin-6-yl)oxy]-4-fluorophenyl}propane-1-sulfonamide [Example 55] | 8.27 | – | – | – | pIC50 [10]: 8.51; B/P ratio (free) [11]: 0.46-0.51; MDR1 efflux ratio (P-gp (MDR1) [8]): 1.1; BCRP efflux ratio (BCRP [9]): 0.83
